Where “and” joins values, the source holds several entries; their conditions need not be identical. Identical values can stand only once. Like-named read-outs stand apart in the source and are kept apart here.
Legend:
[1] = biological target: T1, COX-1 (derived from bovine aortic endothelial cells) (Bos taurus, UniProt O62664); conditions: cited from earlier work
T1 construct: COX-1 (derived from bovine aortic endothelial cells); host or cells: bovine aortic endothelial cells (endogenous)
T1 sequence (O62664 25-600): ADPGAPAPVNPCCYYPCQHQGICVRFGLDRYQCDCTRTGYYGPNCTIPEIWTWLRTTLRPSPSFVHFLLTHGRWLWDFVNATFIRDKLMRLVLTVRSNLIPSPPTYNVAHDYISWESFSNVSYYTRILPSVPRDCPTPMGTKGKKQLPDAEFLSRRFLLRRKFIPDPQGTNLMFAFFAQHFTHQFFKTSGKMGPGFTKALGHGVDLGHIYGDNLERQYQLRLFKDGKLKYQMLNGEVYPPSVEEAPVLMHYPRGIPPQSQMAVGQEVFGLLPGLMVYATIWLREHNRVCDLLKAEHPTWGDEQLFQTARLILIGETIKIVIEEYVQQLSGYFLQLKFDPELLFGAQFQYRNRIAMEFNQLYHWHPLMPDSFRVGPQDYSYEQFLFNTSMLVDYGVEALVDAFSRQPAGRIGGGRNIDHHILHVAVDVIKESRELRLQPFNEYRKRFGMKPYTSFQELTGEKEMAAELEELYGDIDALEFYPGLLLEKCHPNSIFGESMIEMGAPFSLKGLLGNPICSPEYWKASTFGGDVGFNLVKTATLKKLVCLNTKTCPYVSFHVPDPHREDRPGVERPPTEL

canine COX-1 = biological target: T2, canine COX-1 (Canis lupus familiaris, UniProt Q8HZR1); assay: Canine COX-1 activity: washed canine platelets, A23187-stimulated TXB2 by EIA; type: cell-based, dog; conditions: results of repeated tests averaged
T2 construct: from tissue; host or cells: washed platelets from donor dog blood
T2 sequence (Q8HZR1 28-603): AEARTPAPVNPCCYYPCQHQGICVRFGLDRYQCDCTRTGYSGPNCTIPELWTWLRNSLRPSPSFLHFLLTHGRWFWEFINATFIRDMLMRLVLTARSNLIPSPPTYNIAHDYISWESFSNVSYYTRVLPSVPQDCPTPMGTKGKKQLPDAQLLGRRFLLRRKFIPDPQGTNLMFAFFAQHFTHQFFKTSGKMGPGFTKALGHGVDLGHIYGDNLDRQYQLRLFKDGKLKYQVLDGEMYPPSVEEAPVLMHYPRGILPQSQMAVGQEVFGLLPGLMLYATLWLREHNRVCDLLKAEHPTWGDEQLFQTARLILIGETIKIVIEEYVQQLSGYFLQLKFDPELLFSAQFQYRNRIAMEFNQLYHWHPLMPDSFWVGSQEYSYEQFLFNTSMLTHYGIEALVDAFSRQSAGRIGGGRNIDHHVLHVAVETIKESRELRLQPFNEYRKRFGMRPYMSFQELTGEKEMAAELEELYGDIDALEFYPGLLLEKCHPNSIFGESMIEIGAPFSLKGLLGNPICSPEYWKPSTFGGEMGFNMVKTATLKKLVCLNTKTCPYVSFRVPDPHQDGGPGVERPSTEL
Description: Protocol for Evaluation of Canine COX-1 Activity
Test drug compounds were solubilized and diluted the day before the assay was to be conducted with 0.1 mL of DMSO/9.9 mL of Hank's balanced salts solution (HBSS), and stored overnight at 4° C. On the day that the assay was carried out, citrated blood was drawn from a donor dog, centrifuged at 190×g for 25 min at room temperature, and the resulting platelet-rich plasma was then transferred to a new tube for further procedures. The platelets were washed by centrifuging at 1500×g for 10 min at room temperature. The platelets were washed with platelet buffer comprising Hank's buffer (Ca free) with 0.2% bovine serum albumin (BSA) and 20 mM HEPES. […] Then, 100 μl of canine washed platelets were added and the samples were incubated at 37° C. for 15 min, after which the reaction was stopped by adding 20 μl of 77 mM EDTA. The plates were then centrifuged at 2000×g for 10 min at […], after which 50 μl of supernatant was assayed for thromboxane B2 (TXB2) by enzyme-immunoassay (EIA).

[2] = dog, in vivo, po
Description: Following oral dosing to dogs of an immediate release carprofen formulation at a dose of 2 mg/lb, plasma carprofen concentrations were above 10 μg/mL for approximately 10.5 hr. In accordance with the present invention, 2 mg/lb/day is within the range of preferred doses of carprofen.
Immediate release carprofen dosage forms containing doses of 1.8, 1.6, and 1.4 mg/lb maintain a plasma carprofen concentration above 10 μg/mL for 9.5 hrs, 8.5 hrs, and 7.5 hrs, respectively.

COX-2 = COX-2 (Canis lupus familiaris, UniProt Q8SPQ9); assay: in vivo; conditions: for PGE2 Pg/mL/Well: individual dogs; for inhibition at 2 mg/kg / inhibition at 4 mg/kg: dog, po
Description: A zero-hour blood sample was collected from all dogs in the study prior to dosing, followed by 2- and 4-hour post-dose blood sample collections. Test tubes were prepared containing 2 μL of lipopolysaccharide (LPS) to give a 10 μg/mL final concentration. Untreated test tubes were used as controls. A 500 μL sample of blood was added to each of the above-described test tubes, after which they were incubated at 37° C. overnight. After incubation […] of EDTA was added to give a final concentration of 0.3%. The incubated samples were centrifuged at 4° C. and the resulting plasma sample of 200 μL was collected and stored at −20° C. in propylene 96-well plates. Enzyme immunoassay (EIA) kits available from Cayman were used to measure production of PGE2, with endpoint determination by colorimetry. Plasma samples were diluted to 1/750 for PGE2.

[3] = inspection of plot of plasma level vs % COX-2 inhibition (Example 3 data)

Chain of COX-2 (Q8SPQ9 18-604): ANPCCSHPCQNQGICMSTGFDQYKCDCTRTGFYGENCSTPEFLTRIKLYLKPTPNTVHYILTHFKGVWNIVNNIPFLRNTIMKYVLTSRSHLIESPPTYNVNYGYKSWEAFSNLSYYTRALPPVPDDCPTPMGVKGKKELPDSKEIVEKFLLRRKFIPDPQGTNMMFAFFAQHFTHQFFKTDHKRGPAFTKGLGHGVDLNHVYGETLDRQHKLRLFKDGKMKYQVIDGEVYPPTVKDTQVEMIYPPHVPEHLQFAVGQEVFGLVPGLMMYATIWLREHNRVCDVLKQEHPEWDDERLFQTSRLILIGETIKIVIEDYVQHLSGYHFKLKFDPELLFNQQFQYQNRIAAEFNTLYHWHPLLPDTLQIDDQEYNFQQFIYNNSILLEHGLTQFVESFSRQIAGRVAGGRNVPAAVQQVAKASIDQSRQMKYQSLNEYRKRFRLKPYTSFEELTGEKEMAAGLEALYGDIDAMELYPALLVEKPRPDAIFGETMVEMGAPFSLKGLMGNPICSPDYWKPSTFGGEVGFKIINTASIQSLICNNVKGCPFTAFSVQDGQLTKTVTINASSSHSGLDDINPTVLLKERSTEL

CC(C(=O)O)c1ccc2c(c1)[nH]c1ccc(Cl)cc12 (racemic) [Carprofen (rac.), 6-chloro-α-methyl-9H-carbazole-2-acetic acid]
IC50 ([1]; as shown by Battistini et al., read-out: IC50 (μM) COX-1): 11 µM
IC50 ([1]; n=9, bovine aortic endothelial cells, read-out: IC50 (μg/mL) COX-1 (converted)): 11 µM
IC50 (canine COX-1): 13.2 µM
time plasma carprofen concentrations were above 10 μg/mL [2]: approximately 10.5 hr
PGE2 Pg/mL/Well (COX-2; 2 mg/kg PO tablet, 0-hour (pre-dose)): 293 Pg/mL/Well and 541 Pg/mL/Well and 409 Pg/mL/Well
PGE2 Pg/mL/Well (COX-2; 4 mg/kg PO tablet, 0-hour (pre-dose)): 471 Pg/mL/Well and 393 Pg/mL/Well and 622 Pg/mL/Well
PGE2 Pg/mL/Well (COX-2; 4 mg/kg PO tablet, 2-hour post-dose): 25 Pg/mL/Well and 21 Pg/mL/Well and 14 Pg/mL/Well
PGE2 Pg/mL/Well (COX-2; 4 mg/kg PO tablet, 4-hour post-dose): 20 Pg/mL/Well and 25 Pg/mL/Well and 14 Pg/mL/Well
inhibition at 2 mg/kg (COX-2; read-out: COX-2 activity Percent Inhibition, 2 mg/kg PO tablet, 2-hour, based on each dog's zero hour value): 88%
inhibition at 2 mg/kg (COX-2; read-out: COX-2 activity Percent Inhibition, 2 mg/kg PO tablet, 4-hour, based on each dog's zero hour value): 77%
inhibition at 4 mg/kg (COX-2; read-out: COX-2 activity Percent Inhibition, 4 mg/kg PO tablet, 2-hour, based on each dog's zero hour value): 95%
inhibition at 4 mg/kg (COX-2; read-out: COX-2 activity Percent Inhibition, 4 mg/kg PO tablet, 4-hour, based on each dog's zero hour value): 96%
plasma carprofen concentration at which 80% COX-2 inhibition occurred (COX-2; [3]): approximately 10 μg/mL
plasma carprofen concentration at which 90% COX-2 inhibition occurred (COX-2; [3]): approximately 20 μg/mL
